These results are taken from ChEMBL document CHEMBL3507680, “University of Dundee, Gates Library screen for HepG2 cell viability”.

The nature of this data set: Human HepG2 cell viability assay in 384 well format. Details: dose 125 nL, time 70.5 hour; cytotoxicity at 70.5 h: concentration not given beside the values. Type of data set: toxicity, cell-based. As to conditions: HepG2 cells, read-out: Inhibition.
In the case of `CC(C)n1ccc2cc(C(=O)Nc3nc[nH]n3)ccc21`, the cytotoxicity at 70.5 h is -15.9%. On to `Cc1nn(C)c(C)c1C1SCC(=O)Nc2c1c(O)nn2C(C)C` (configuration not stated), for which the cytotoxicity at 70.5 h is -28.8%. In the case of `Cc1nc(C(=O)N2CCN(S(=O)(=O)N(C)C)CC2)c(-c2ccccc2)s1`, the cytotoxicity at 70.5 h is 13.5%.

As to `COCCn1ccc2c(C(=O)NC(C)C)cccc21`, the cytotoxicity at 70.5 h is -12.3%.

Turning to `O=C(CCc1nc2cc(Br)cnc2[nH]1)NCCCN1CCOCC1`, the cytotoxicity at 70.5 h was -17.4%. Next, `CC(C)C1SCC(=O)Nc2c1c(O)nn2C1CCCCC1` (configuration not stated): -23.1%; `CC(C)C1SCC(=O)Nc2c1cnn2-c1ccc(Cl)cc1F` (configuration not stated): 0.678%. With `CC(C)(C)c1csc(CCNC(=O)[C@H](c2ccccc2)n2cnnn2)n1`, the cytotoxicity at 70.5 h was -5.57%. Turning to `Cc1nn(-c2ccc(C(=O)O)cc2)c2c1C(C(F)(F)F)SCC(=O)N2` (configuration not stated), the cytotoxicity at 70.5 h was -5.65%. Regarding `COc1ccc2c(c1)c(C(=O)Nc1nnn[nH]1)cn2C(C)C`, the cytotoxicity at 70.5 h turned out to be 24.1%.

For the molecule `CC(C)n1cc(C(=O)NC2CCS(=O)(=O)C2)c2ccccc2c1=O` (configuration not stated), the cytotoxicity at 70.5 h is -14.3%. Turning to `O=C(NC1CCS(=O)(=O)C1)c1cn(C2CC2)c(=O)c2ccccc12` (configuration not stated), the cytotoxicity at 70.5 h was -14.3%. Next, `CC(C)CNC(=O)c1cn(-c2ccccn2)c(=O)c2ccccc12`: -7.97%. Turning to `Cc1nn(-c2ccc(C(=O)O)cc2)c2c1C(CC(C)C)SCC(=O)N2` (configuration not stated), the cytotoxicity at 70.5 h amounted to 0.483%. With `Cc1nc(C(=O)N2CCN(S(C)(=O)=O)CC2)c(-c2cccc(F)c2)s1`, the cytotoxicity at 70.5 h amounted to 9.8%. Turning to `Cc1c(C2SCC(=O)Nc3c2c(O)nn3C2CCCC2)cnn1C` (configuration not stated), the cytotoxicity at 70.5 h was -22.8%. As to `Cc1nnsc1-c1nnc2sc(C3CCC3)nn12`, the cytotoxicity at 70.5 h was -10%. Next, `O=c1c(CN2CCCCCC2)coc(O)c1CN1CCCCCC1`: -4.84%; `O=C1CCC(c2ccc(Cl)cc2)=NN1CN1CCSCC1`: -15.1%; `O=C1CSC(C(F)(F)F)c2c(O)nn(C3CCCCC3)c2N1` (configuration not stated): 15.2%. Take `CC(C)CCn1cc(C(=O)NC2CCS(=O)(=O)C2)c2ccccc2c1=O` (configuration not stated): the cytotoxicity at 70.5 h is -12.4%.

In the case of `COC(=O)CCNC(=O)c1cc(-c2ccc(OC)cc2)nn1C`, the cytotoxicity at 70.5 h is -3.5%. `O=C(CNC(=O)c1cnccn1)Nc1ncc[nH]1`: the cytotoxicity at 70.5 h is -33.4%.

For `O=C(Cn1ccc2c(Cl)cccc21)Nc1nc[nH]n1`, the cytotoxicity at 70.5 h is -11.2%. Consider `Cc1cc(C)nc(NCCC(=O)NCCn2ccc3ccccc32)n1`, for which the cytotoxicity at 70.5 h was found to be 5.63%. Consider `COCCn1ccc2cc(C(=O)N3CCN(S(C)(=O)=O)CC3)ccc21`, for which the cytotoxicity at 70.5 h is -5.85%.

Consider `CN(C)S(=O)(=O)N1CCN(C(=O)c2cc(-c3ccc(Br)s3)n[nH]2)CC1`, for which the cytotoxicity at 70.5 h is -10.1%.

As to `O=C(CCc1nnc2ccccn2c1=O)NCc1ccc2c(c1)OCO2`, the cytotoxicity at 70.5 h was found to be 25.1%. With `Cn1c(CN2CCOCC2)cc(=O)c(O)c1CN1CCCCC1`, the cytotoxicity at 70.5 h was -4.64%.

For the molecule `CC(C)c1sc(Br)nc1C(=O)NCc1cccnc1`, the cytotoxicity at 70.5 h was found to be 23.2%.

Consider `Cc1ccc(C(=O)Nc2nnc(CC(C)C)s2)c(-n2cnnn2)c1C`, for which the cytotoxicity at 70.5 h amounted to 29.7%. Next, `CC(C)CNC(=O)C1CC(=O)N(c2n[nH]c3ccccc23)C1` (configuration not stated): -5.36%; `COCCNC(=O)C1CC(=O)N(c2n[nH]c3cccc(F)c23)C1` (configuration not stated): -25%; `CC(C)NC(=O)c1cccc(Oc2ccc3nncn3n2)c1`: 23.3%.

With `CC(C)n1cc(C(=O)NC2CN3CCC2CC3)c2ccccc21` (configuration not stated), the cytotoxicity at 70.5 h was -20.2%. With `COc1ccccc1C1SCC(=O)Nc2c1c(=O)[nH]n2C1CCOCC1` (configuration not stated), the cytotoxicity at 70.5 h is -24.1%. `Cc1cc(-c2nn3c(C4CCC4)nnc3s2)on1`: the cytotoxicity at 70.5 h was -7.88%. As for `COCCn1cnc2ccc(NC(=O)c3c(C)noc3C)cc2c1=O`, the cytotoxicity at 70.5 h is 30.3%. In the case of `COc1ccc2c(ccn2CCC(=O)Nc2n[nH]c(C(C)C)n2)c1`, the cytotoxicity at 70.5 h is 24.3%.

As for `Cn1cnc2ccc(NC(=O)CCCn3cccn3)cc2c1=O`, the cytotoxicity at 70.5 h is -13.5%. In the case of `O=C1CSC(c2ccc(F)c(Cl)c2)c2c(n(C3CCOCC3)[nH]c2=O)N1` (configuration not stated), the cytotoxicity at 70.5 h worked out at 10.3%.

Turning to `CC(C)c1sc(Cl)nc1C(=O)N1CCN(Cc2ccccc2)CC1`, the cytotoxicity at 70.5 h came out at 27.3%. Take `CCN1CCCC1CNC(=O)Cc1c(C)n[nH]c1-c1ccc(F)cc1` (configuration not stated): the cytotoxicity at 70.5 h turned out to be 22.5%.

In the case of `O=C(Cn1cnc2ccsc2c1=O)NCCCc1nnc2ccccn12`, the cytotoxicity at 70.5 h was found to be 26.5%. As for `Cc1noc(C)c1C(=O)Nc1ccc2ncn(CC(C)C)c(=O)c2c1`, the cytotoxicity at 70.5 h turned out to be 50.5%. For `COc1cn(CC(=O)N2CCN(c3ccc(F)cc3)CC2)c(C)cc1=O`, the cytotoxicity at 70.5 h came to 27.9%. With `COc1ccc(-c2n[nH]c(C)c2CC(=O)NCC2CCOCC2)cc1`, the cytotoxicity at 70.5 h is -10.5%.

As to `CC(C)n1ccc2c(NC(=O)c3n[nH]c4c3CCC4)cccc21`, the cytotoxicity at 70.5 h worked out at 7.25%. Regarding `CSc1ccc(C2SCC(=O)Nc3c2c(=O)[nH]n3C2CCOCC2)cc1` (configuration not stated), the cytotoxicity at 70.5 h is -23.9%.

As for `O=C(CCCn1cnc2ccccc2c1=O)Nc1nc[nH]n1`, the cytotoxicity at 70.5 h was determined as 22.9%. As for `CC(=O)NC1CCCc2c1[nH]c1ccc(F)cc21` (configuration not stated), the cytotoxicity at 70.5 h was 29.6%. For `CC(C)Cc1nc(NC(=O)c2cc(-c3cccnc3)n[nH]2)n[nH]1`, the cytotoxicity at 70.5 h was -5.07%. For the molecule `O=C(c1cc2c(Cl)cccc2[nH]1)N1CCN(CCc2ccccn2)CC1`, the cytotoxicity at 70.5 h was found to be 24.6%.

Consider `CC(=O)Nc1cccc2c1ccn2CC(=O)Nc1n[nH]c(CC(C)C)n1`, for which the cytotoxicity at 70.5 h was -5.98%.

In the case of `Cn1nc(-c2cccc(Cl)c2)c(Br)c1C(=O)O`, the cytotoxicity at 70.5 h is -16.9%.

On to `Cn1/c(=N/C(=O)CSCC(=O)Nc2nccs2)sc2ccccc21`, for which the cytotoxicity at 70.5 h was 2.4%. Next, `CN1CCOCC12CCN(Cc1nccs1)CC2`: 3.99%. Next, `CC(C)NC(=O)c1nc2c(s1)CCCN2C(C)C`: 7.18%; `CCc1cnc(N2C[C@@H]3[C@@H](C(=O)NCC(C)C)CCS(=O)(=O)[C@@H]3C2)nc1`: -5.83%; `CN1CCCc2sc(C(=O)NC3CC3)nc21`: -1.86%. As for `Cn1nc(CN2CCCC2)c2c1CN(C(=O)c1ccncc1F)CC2`, the cytotoxicity at 70.5 h is -3.12%. Consider `CCc1cnc(N2C[C@@H]3[C@@H](C(=O)NC(C)C)CCS(=O)(=O)[C@@H]3C2)nc1`, for which the cytotoxicity at 70.5 h worked out at 0.524%. Next, `COCCN(C)C(=O)c1nc2c(s1)CCCN2C(=O)C1CC1`: -3.1%.

Turning to `COCCO[C@@H]1CCN(c2cc(OC)ncn2)[C@H]1Cc1cnn(C)c1`, the cytotoxicity at 70.5 h was -4.31%.

In the case of `CCOCC1CC2(CCN(C(=O)C3CCSCC3)CC2)CO1` (configuration not stated), the cytotoxicity at 70.5 h was found to be 8.92%. Take `CS(=O)(=O)N1CCO[C@@H]2CN(C(=O)COC3CCCC3)C[C@@H]2C1`: the cytotoxicity at 70.5 h was found to be 7.96%. For the molecule `CCCc1nc(C(C)(C)NC(=O)C2CC(=O)N(CC(C)C)C2)no1` (configuration not stated), the cytotoxicity at 70.5 h was -4.84%. As for `Cc1ncsc1C(=O)NCCNC(=O)Cc1cccc(F)c1`, the cytotoxicity at 70.5 h is -6.49%. As for `Cc1ncc(C(=O)NCCNC(=O)Cc2cccc(F)c2)s1`, the cytotoxicity at 70.5 h was -6.72%. Turning to `CCOc1cc(C)nc(N2CCN(C(=O)Cn3cc(C)cn3)CC2)n1`, the cytotoxicity at 70.5 h was -0.0989%.

With `CC(NC(=O)NCCN1CCCC1)c1nncn1C` (configuration not stated), the cytotoxicity at 70.5 h was -8.29%. Next, `CCOc1cc(C)nc(N2CCN(C(=O)c3cnc[nH]3)CC2)n1`: -0.152%; `NC(=O)C1CCCN(C(=O)c2ccn(-c3ccc(F)cc3)n2)C1` (configuration not stated): -5.61%. `CCOc1cc(C)nc(N2CCN(C(=O)c3cscn3)CC2)n1`: the cytotoxicity at 70.5 h was -4.61%. Regarding `O=C(CCN1CCCC1=O)Nc1cnn(-c2ccccc2Cl)c1`, the cytotoxicity at 70.5 h was -8.1%. In the case of `CC(C)Cc1nc(CN2CCOC(Cn3cncn3)C2)no1` (configuration not stated), the cytotoxicity at 70.5 h was -8.48%. `Cc1nccc(C(=O)N2CCCC(c3cc(C(F)(F)F)[nH]n3)C2)n1` (configuration not stated): the cytotoxicity at 70.5 h was -2.27%. As to `Cc1noc(C)c1C(=O)N1CCCC(c2cc(C(F)(F)F)[nH]n2)C1` (configuration not stated), the cytotoxicity at 70.5 h turned out to be 11%. With `Cc1ccc(C(=O)NS(=O)(=O)c2ccccc2Cl)c(=O)[nH]1`, the cytotoxicity at 70.5 h was determined as 9.73%. For `CC(C)c1ccc(CCC(=O)N2CCOCC2c2ncon2)cc1` (configuration not stated), the cytotoxicity at 70.5 h was -5.22%. Regarding `Cc1nc(CN2CCCC(N(C)CCCc3ccccc3)C2)no1` (configuration not stated), the cytotoxicity at 70.5 h was -5.01%. Next, `Cc1nc(CN2CCCC(N(C)CCOCC(F)(F)F)C2)no1` (configuration not stated): -6.75%. As for `Cc1cc(NC(=O)CN2CCCC2c2c(C)nn(C)c2Cl)on1` (configuration not stated), the cytotoxicity at 70.5 h was -0.864%.

For `N#Cc1ccc(F)c(CN2CCCCC2Cn2cccn2)c1` (configuration not stated), the cytotoxicity at 70.5 h was found to be 0.631%. Take `COc1c(C2CCCN2CC(=O)Nc2cc(C)nn2C)c(C)nn1C` (configuration not stated): the cytotoxicity at 70.5 h is -3.3%. Next, `N#Cc1ccc(CN2CCCC2Cn2cccn2)c(F)c1` (configuration not stated): 4.66%; `Cc1nc(CN(C)CC(c2cccs2)N2CCOCC2)no1` (configuration not stated): -1.7%.

`O=C(NC1CC1)N1CCN(c2cnccn2)CC1`: the cytotoxicity at 70.5 h was -1.17%. Take `Cc1ncc(CN2CCOCC2)c2cc(C(=O)c3ccc(Br)cc3)oc12`: the cytotoxicity at 70.5 h was -13.8%. Next, `CC(C)c1nn(C)cc1CNC1CCOc2ccccc21` (configuration not stated): -7.85%; `CN1C(=O)CCCC12CCCN(Cc1nccs1)C2` (configuration not stated): 9.31%; `O=C([C@@H]1COC[C@H]2CN(c3ccncn3)C[C@H]21)N1CCCCO1`: -6.51%. Regarding `Cn1nccc1-c1nc2c(cc1C(=O)O)CCN(C(=O)C1CC1)CC2`, the cytotoxicity at 70.5 h is -2.87%. Next, `O=C(c1ccccn1)N1CC[C@H]2[C@H]1CCN2S(=O)(=O)C1CC1`: 6.25%; `C1CN(CC2CCOCC2)Cc2c(COCC3CC3)nnn2C1`: -7.76%; `CCCS(=O)(=O)N1C[C@@H]2CN(Cc3ccco3)CCO[C@@H]2C1`: -2.23%. `Cc1nc2c(cc1C(=O)O)CCN(CC1CC1)CC2`: the cytotoxicity at 70.5 h is -3.49%.
